From patent US7598234B2, “Steroid derived antibiotics” (Brigham Young University, priority 1998, dated 2009)
In brackets after ≈: the same amount, converted by molar mass.

How the values were obtained:
[1] = test system: Klebsiella pneumonia ATCC 13883; assay: MIC and MBC measurement with Klebsiella pneumoniae ATCC 13883; assay type: cell-based; conditions: Table 10
Method in brief: (§1)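 In sensitization runs, erythromycin or novobiocin followed the cholic acid derivative by 15 minutes in TSB; cultures then sat at 37° C. for 24 hours before A760 reading. Clear samples were subcultured to TSA for CFU counts relative to the inoculum.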

E. coli (ATCC 10798) [2] = assay: Sensitization to novobiocin (concentration lowering the MIC of novobiocin), E. coli (ATCC 10798); assay type: cell-based, Escherichia coli; conditions: Table 3, E. coli (ATCC 10798); for MBC (with novobiocin): novobiocin sensitization
[3] = test system: Escherichia coli ATCC 25922; assay: Growth inhibition and FIC with rifampicin, Escherichia coli ATCC 25922; assay type: cell-based; conditions: for FIC: Table 13, rifampicin (by order); for concentration required to inhibit bacterial growth with antibiotic: Table 13, rifampicin (by order) at 0.5, 1.0 or 3.0 μg/mL
Protocol: (§2) Alternatively, “fractional inhibitory concentration (FIC)” is also useful for determination of synergy between the compounds of the invention, or the compounds in combination with known antibiotics. FICs can be performed by checkerboard titrations of compounds in one dimension of a microtiter plate, and of antibiotics in the other dimension, for example. The FIC is calculated by looking at the impact of one antibiotic on the MIC of the other and vice versa. […] Preferably, an FIC of less than 0.5 is obtained for synergism. As used herein, FIC can be determined as follows:
(§3) Aliquots of 1 mL of the suspension were added to test tubes containing 1 mL TSB and incrementally varied concentrations of cholic acid derivatives and/or erythromycin or novobiocin. In the sensitization experiments, erythromycin or novobiocin were added 15 minutes later than the cholic acid derivatives. The samples were subjected to stationary incubation at 37° C. for 24 hours. Sample turbidity was determined by measuring absorption at 760 nm (HP 8453 UV-Visible Chemstation, Hewlett Packard). Additionally, an alliquot from each of the samples showing no measurable turbidity was subcultured on TSA plates (alliquots were diluted to provide fewer than 300 CFU). Colonies that grew on the subculture after overnight incubation were counted and the number of CFU/mL in the samples were calculated. The calculated values were compared to the number of CFU/mL in the original inoculum.
(§4) To measure permeabilization, the FIC values for compounds 1, 2, 5, 106, 10, 112, 133, and 134 with erythromycin, novobiocin, and rifampicin were determined. Concentrations of 0.5, 1.0 or 3.0 μg/mL of these antibiotics were used, and the concentrations of the cholic acid derivatives required to inhibit bacterial growth of Gram-negative strains were determined.

[4] = test system: Pseudomonas aeruginosa (ATCC 27853); assay: Sensitization to novobiocin, Pseudomonas aeruginosa (ATCC 27853); assay type: cell-based; conditions: for MIC: concentration required to lower the MIC of novobiocin from >500 μg/mL to 1 μg/mL: Table 8, P. aureginosa (ATCC 27853); for FIC / concentration required to inhibit bacterial growth with antibiotic: Table 12, Pseudomonas aeruginosa ATCC 27853; for FIC: novobiocin (by order); for concentration required to inhibit bacterial growth with antibiotic: novobiocin (by order) at 0.5, 1.0 or 3.0 μg/mL
Method in brief: (§5)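 Tube checkerboard in TSB: cholic acid derivatives added, then erythromycin or novobiocin 15 min later, antibiotics at 0.5, 1.0 or 3.0 μg/mL; stationary 37 °C, 24 h. Turbidity read at 760 nm; clear samples subcultured on TSA for CFU counts versus inoculum; FIC derived for synergy.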

[5] = test system: Staphylococcus aureus ATCC 25923; assay: MIC and MBC measurement with Staphylococcus aureus ATCC 25923; assay type: cell-based; conditions: Table 10; Staphylococcus aureus ATCC 25923
Method in brief: (§6)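 Bacteria incubated statically 24 h at 37 °C in TSB with graded compound concentrations (erythromycin or novobiocin added 15 min later in sensitization runs). MIC from turbidity at 760 nm; MBC by subculturing clear samples on TSA and comparing CFU/mL to inoculum.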

[6] = test system: Streptococcus pyrogenes ATCC 19615; assay: MIC and MBC measurement with Streptococcus pyogenes ATCC 19615; assay type: cell-based; conditions: Table 10
From the text: General: Microorganisms. Reference strains were purchased from the American Type Culture Collection (Rockville, Md.) or Bactrol disks from Difeo Laboratories (Detroit, Mich.). The following specific ATCC strains were used: 10798 Escherichia coli, 25922 Escherichia coli, 13883 Klebsiella pneumoniae, 27853 Pseudomonas aeruginosa, 14028 Salmonella typhimurium, 29212 Enterococcus faecalis, 25923 Staphylococcus aureus, 19615 Streptococcus pyogenes, and 90028 Candida albicans. Bacterial strains were maintained on Mueller-Hinton agar plates, and Candida albicans was maintained on Sabouraud Dextrose agar plates.
Tryptic soy broth (TSB) was made by dissolving 27.5 grams of tryptic soy broth without dextrose (DIFCO Laboratories) in 1 liter of deionized water and sterilizing at 121° C. for 15 minutes. Solid agar (TSA) plates were made by dissolving 6.4 grams of tryptic soy broth and 12 grams of agar (purified grade, Fischer Scientific) in 800 mL of deionized water and sterilizing at 121° C. for 20 minutes. Aliquots (20 mL) of the homogeneous solution were then poured in sterile plastic petri dishes (100×15 mm, Fisher Scientific). Solutions of compounds were made by dissolving the HCl salt of the respective compound into an appropriate amount of deionized and sterilized water followed by microfiltration.
as §3

E. coli (ATCC 25922) = assay: MIC and MBC measurement with E. coli (ATCC 25922); assay type: cell-based, Escherichia coli
Method in brief: as §6

[7] = test system: Pseudomonas aeruginosa (ATCC 27853); assay: Sensitization to erythromycin, Pseudomonas aeruginosa (ATCC 27853); assay type: cell-based; conditions: for MIC: concentration required to lower the MIC of erythromycin from 240 μg/mL to 5 μg/mL / MBC (with erythromycin): Table 7, P. aureginosa (ATCC 27853); for MBC (with erythromycin): erythromycin sensitization; for FIC / concentration required to inhibit bacterial growth with antibiotic: Table 11, Pseudomonas aeruginosa ATCC 27853; for FIC: erythromycin (by order); for concentration required to inhibit bacterial growth with antibiotic: erythromycin (by order) at 0.5, 1.0 or 3.0 μg/mL
Method in brief: as §5

[8] = test system: Salmonella typhimurium ATCC 14028; assay: Growth inhibition and FIC with novobiocin, Salmonella typhimurium ATCC 14028; assay type: cell-based; conditions: for FIC: Table 12, novobiocin (by order); for concentration required to inhibit bacterial growth with antibiotic: Table 12, novobiocin (by order) at 0.5, 1.0 or 3.0 μg/mL
Protocol: as §2, §3, §4

[9] = test system: Klebsiella pneumonia ATCC 13883; assay: Growth inhibition and FIC with novobiocin, Klebsiella pneumoniae ATCC 13883; assay type: cell-based; conditions: Table 12, novobiocin (by order) at 0.5, 1.0 or 3.0 μg/mL
Protocol: as §2, §3, §4

[10] = test system: Pseudomonas aeruginosa ATCC 27853; assay: Growth inhibition and FIC with rifampicin, Pseudomonas aeruginosa ATCC 27853; assay type: cell-based; conditions: Table 13, Pseudomonas aeruginosa ATCC 27853^b; for FIC: rifampicin (by order); for concentration required to inhibit bacterial growth with antibiotic: rifampicin (by order) at 0.5, 1.0 or 3.0 μg/mL
Protocol: as §2, §3, §4

[11] = test system: Pseudomonas aeruginosa (ATCC 27853); assay: MIC and MBC measurement with Pseudomonas aeruginosa (ATCC 27853); assay type: cell-based
Method in brief: as §1

E. coli (ATCC 10798) [12] = assay: Sensitization to erythromycin (concentration lowering the MIC of erythromycin), E. coli (ATCC 10798); assay type: cell-based, Escherichia coli; conditions: Table 2, E. coli (ATCC 10798); for MBC (with erythromycin): erythromycin sensitization
[13] = test system: Klebsiella pneumonia ATCC 13883; assay: Growth inhibition and FIC with rifampicin, Klebsiella pneumoniae ATCC 13883; assay type: cell-based; conditions: for FIC: Table 13, rifampicin (by order); for concentration required to inhibit bacterial growth with antibiotic: Table 13, rifampicin (by order) at 0.5, 1.0 or 3.0 μg/mL
Protocol: as §2, §3, §4

[14] = Table 10, Escherichia coli ATCC 25922
[15] = Table 6, P. aureginosa (ATCC 27853)
[16] = Table 10, Pseudomonas aeruginosa ATCC 27853

Row | Compound | MBC [1] | MIC [1] | MIC: concentration required to lower the MIC of novobiocin from >500 μg/mL to 1 μg/mL (E. coli (ATCC 10798) [2]) | MBC (with novobiocin) (E. coli (ATCC 10798) [2]) | FIC [3] | concentration required to inhibit bacterial growth with antibiotic [3] | MIC: concentration required to lower the MIC of novobiocin from >500 μg/mL to 1 μg/mL [4] | FIC [4] | concentration required to inhibit bacterial growth with antibiotic [4] | MBC [5] | MIC [5] | MBC [6] | MIC [6] | MBC (E. coli (ATCC 25922); Table 4, E. coli (ATCC 25922)) | MIC (E. coli (ATCC 25922); Table 4, E. coli (ATCC 25922)) | MBC (E. coli (ATCC 25922); [14]) | MIC (E. coli (ATCC 25922); [14]) | MIC: concentration required to lower the MIC of erythromycin from 240 μg/mL to 5 μg/mL [7] | MBC (with erythromycin) [7] | FIC [7] | further results
1 | C[C@H](CCCN(C)Cc1ccccc1)[C@H]1CC[C@H]2[C@@H]3[C@H](OCCN)C[C@@H]4C[C@H](OCCN)CC[C@]4(C)[C@H]3C[C@H](OCCN)[C@]12C [Compound 1] | >36 µg/mL | 24 µg/mL (≈ 38.3 µM) | 20 µg/mL | 34 µg/mL | 0.099 | 0.74 µg/mL | 6 µg/mL | 0.16 | 3.9 µg/mL | 5.7 µg/mL (≈ 9.09 µM) | 3.1 µg/mL (≈ 4.94 µM) | 4.4 µg/mL (≈ 7.02 µM) | 3.0 µg/mL (≈ 4.78 µM) | 40 µg/mL (≈ 63.8 µM) | 25 µg/mL (≈ 39.9 µM) | 22 µg/mL (≈ 35.1 µM) | 22 µg/mL (≈ 35.1 µM) | 8 µg/mL | 45 µg/mL | 0.29 | concentration required to inhibit bacterial growth with antibiotic [7]: 6.6 µg/mL; FIC [8]: 0.22; concentration required to inhibit bacterial growth with antibiotic [8]: 4.4 µg/mL; concentration required to inhibit bacterial growth with antibiotic [9]: 4.7 µg/mL; FIC [10]: 0.096; concentration required to inhibit bacterial growth with antibiotic [10]: 1.5 µg/mL; MBC [11, 15]: >50 µg/mL; MIC [11, 15]: 15 µg/mL (≈ 23.9 µM); MBC [11, 16]: 38 µg/mL (≈ 60.6 µM); MIC [11, 16]: 26 µg/mL (≈ 41.5 µM); MIC: concentration required to lower the MIC of erythromycin from 70 μg/mL to 1 μg/mL (E. coli (ATCC 10798) [12]): 2 µg/mL; MBC (with erythromycin) (E. coli (ATCC 10798) [12]): 20 µg/mL; FIC [13]: 0.043; concentration required to inhibit bacterial growth with antibiotic [13]: 0.40 µg/mL
2 | C[C@H](CCCN(C)Cc1ccccc1)[C@H]1CC[C@H]2[C@@H]3[C@H](OCCCN)C[C@@H]4C[C@H](OCCCN)CC[C@]4(C)[C@H]3C[C@H](OCCCN)[C@]12C [Compound 2] | 17 µg/mL (≈ 25.4 µM) | 14 µg/mL (≈ 20.9 µM) | 7 µg/mL | 16 µg/mL | 0.22 | 0.80 µg/mL | 4 µg/mL | 0.27 | 2.9 µg/mL | 4.7 µg/mL (≈ 7.02 µM) | 1.0 µg/mL (≈ 1.49 µM) | 2.3 µg/mL (≈ 3.44 µM) | 2.0 µg/mL (≈ 2.99 µM) | 20 µg/mL (≈ 29.9 µM) | 10 µg/mL (≈ 14.9 µM) | 6.8 µg/mL (≈ 10.2 µM) | 5.1 µg/mL (≈ 7.62 µM) | 4 µg/mL | 25 µg/mL | 0.25 | concentration required to inhibit bacterial growth with antibiotic [7]: 2.4 µg/mL; FIC [8]: 0.36; concentration required to inhibit bacterial growth with antibiotic [8]: 4.5 µg/mL; concentration required to inhibit bacterial growth with antibiotic [9]: 0.49 µg/mL; FIC [10]: 0.086; concentration required to inhibit bacterial growth with antibiotic [10]: 0.50 µg/mL; MBC [11, 15]: 40 µg/mL (≈ 59.8 µM); MIC [11, 15]: 9 µg/mL (≈ 13.5 µM); MBC [11, 16]: >17 µg/mL; MIC [11, 16]: 11 µg/mL (≈ 16.4 µM); MIC: concentration required to lower the MIC of erythromycin from 70 μg/mL to 1 μg/mL (E. coli (ATCC 10798) [12]): 1 µg/mL; MBC (with erythromycin) (E. coli (ATCC 10798) [12]): 10 µg/mL; FIC [13]: 0.035; concentration required to inhibit bacterial growth with antibiotic [13]: 0.12 µg/mL
